Read-outs that look alike come from different tables or passages of the source.
Legend:
NLRP3 inflammasome = biological target: T1, NLRP3 inflammasome (Homo sapiens, UniProt Q96P20); experiment: Inhibitory activity of NLRP3 inflammasome in human monocytes (THP-1 cells, LPS + Nigericin, IL-1β ELISA); assay type: cell-based
T1 construct: host or cells: THP-1 cells
Procedure: 1. Determination of inhibitory activity of NLRP3 inflammasome in human monocytes
Experimental method: THP-1 cells were cultured in RPMI culture medium containing PMA (10 µM), and then inoculated in 48-well plates at a density of 2×10^5 cells/mL, the plates were incubated overnight in a 5% CO2 incubator at 37°C. The next day, the above culture medium was replaced with Opti-MEM culture medium containing 1 µg/mL LPS. After 3 hours, the grown cells were simulated for 40 min with a drug, and then simulated for 40 min with Nigericin (10 µM), and a cell supernatant was harvested for ELISA analysis.
Table 2 Inhibitory activity of NLRP3 inflammasome

[1] = Pharmacokinetic evaluation in Balb/c mice; assay type: in vivo; details: mouse, in vivo, 5 mg/kg, PO, Balb/c mice; for AUC(0-t): read-out: AUC(0-t); for Cmax: read-out: Cmax; for half-life: read-out: T1/2 (converted)
From the text: 4. Pharmacokinetic evaluation of compounds in Balb/c mice
Experimental purpose: to understand pharmacokinetic properties of the compounds.
Experimental basis: Technical Guidelines for Nonclinical Pharmacokinetic Studies of Chemical Drugs, 2014.
Experimental protocol: the pharmacokinetic properties of the compounds were investigated via intravenous administration and intragastric administration in Balb/c mice.
The blood drug concentration was quantitatively analyzed by LC-MS/MS, and pharmacokinetic parameters were calculated, such as peak concentration (Cmax), area under the concentration-time curve (AUC(0-t)), half-life (T1/2), clearance (CL), volume of distribution at steady state (Vdss), and bioavailability (F).
The results of pharmacokinetic evaluation are shown in Table 5 below: Table 5 Pharmacokinetic test results of compounds in Balb/c mice

T1 sequence (Q96P20 whole entry): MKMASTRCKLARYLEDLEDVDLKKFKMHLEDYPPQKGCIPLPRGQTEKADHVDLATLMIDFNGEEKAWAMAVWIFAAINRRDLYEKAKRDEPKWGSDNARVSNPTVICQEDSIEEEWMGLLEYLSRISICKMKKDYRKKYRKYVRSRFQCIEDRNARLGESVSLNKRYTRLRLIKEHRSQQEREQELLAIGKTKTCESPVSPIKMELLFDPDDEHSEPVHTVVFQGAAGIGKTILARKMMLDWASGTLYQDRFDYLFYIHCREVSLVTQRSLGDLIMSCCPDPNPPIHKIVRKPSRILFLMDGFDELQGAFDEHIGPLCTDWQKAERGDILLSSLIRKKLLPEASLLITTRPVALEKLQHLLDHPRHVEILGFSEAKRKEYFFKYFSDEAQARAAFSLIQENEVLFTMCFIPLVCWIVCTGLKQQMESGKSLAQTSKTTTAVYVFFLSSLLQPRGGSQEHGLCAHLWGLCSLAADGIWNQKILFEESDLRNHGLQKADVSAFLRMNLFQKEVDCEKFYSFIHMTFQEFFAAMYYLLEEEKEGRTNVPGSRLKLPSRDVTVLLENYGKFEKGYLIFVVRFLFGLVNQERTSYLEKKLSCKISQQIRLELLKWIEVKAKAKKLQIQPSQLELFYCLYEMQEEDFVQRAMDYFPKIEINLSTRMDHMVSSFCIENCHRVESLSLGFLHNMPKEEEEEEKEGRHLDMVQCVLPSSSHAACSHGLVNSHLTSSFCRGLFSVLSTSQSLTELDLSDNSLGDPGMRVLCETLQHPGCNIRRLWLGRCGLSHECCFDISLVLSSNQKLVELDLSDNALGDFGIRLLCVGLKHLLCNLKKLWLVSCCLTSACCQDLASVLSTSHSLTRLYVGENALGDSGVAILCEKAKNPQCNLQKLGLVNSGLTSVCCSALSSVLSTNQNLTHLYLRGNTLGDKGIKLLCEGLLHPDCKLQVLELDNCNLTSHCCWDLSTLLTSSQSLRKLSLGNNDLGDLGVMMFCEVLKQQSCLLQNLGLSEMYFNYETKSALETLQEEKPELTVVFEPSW

| SMILES | IC50 (NLRP3 inflammasome) | AUC(0-t) [1] | Cmax [1] | half-life [1] | IC50 (NLRP3 inflammasome; THP-1 cells, PMA, LPS 1 µg/mL 3 h, drug 40 min, Nigericin 10 µM 40 min, IL-1β ELISA, read-out: IC50) |
| --- | --- | --- | --- | --- | --- |
| [2H]C([2H])([2H])n1c(-c2ccc3sccc3c2O)nnc(N[C@@H]2CCCN(CC)C2)c1=O [Compound 55, (R)-6-((1-ethylpiperidin-3-yl)amino)-3-(4-hydroxybenzo[b]thiophen-5-yl)-4-(methyl-d3)-1,2,4-triazin-5(4H)-ketone] | 3.5 nM | 7450 ng·h/mL | 1710 ng/mL | 2.91 h |  |
| CCN1C[C@H](F)C[C@@H](Nc2nnc(-c3ccc(C4CC4)cc3O)n(C)c2=O)C1 [Compound 53, 3-(4-cyclopropyl-2-hydroxyphenyl)-6-(((3R,5R)-1-ethyl-5-fluoropiperidin-3-yl)amino)-4-met hyl-1,2,4-triazin-5 (4H)-ketone] | 18.7 nM | 1400 ng·h/mL | 1420 ng/mL | 3.85 h |  |
| COCCn1c(-c2ccc3sccc3c2O)nnc(N[C@@H]2CCCN(C)C2)c1=O [Compound 51, 3-(4-hydroxybenzo[b]thiophen-5-yl)-6-{[(3R)-1-methylpiperidin-3-yl]amino}-4-(2-methoxyethyl)-4H,5H-1,2,4-triazin-5-ketone] | 180 nM | 9780 ng·h/mL | 2940 ng/mL | 2.39 h |  |
| CCN1CCC[C@@H](Nc2nnc(-c3ccc4c(c3O)CCC4=C(F)F)n(C)c2=O)C1 [Compound 2, (R)-3-(1-(difluoromethylene)-4-hydroxy-2,3-dihydro-1H-inden-5-yl)-6-((1-ethylpiperidin-3-y 1)amino)-4-methyl-1,2,4-triazin-5(4H)-ketone] | 4.86 nM | 15200 ng·h/mL | 2690 ng/mL | 2.82 h |  |
| CN1C[C@H](F)C[C@@H](Nc2nnc(-c3ccc4sc(F)cc4c3O)n(C)c2=O)C1 [Compound 52, 3-(2-fluoro-4-hydroxybenzo[b]thiophen-5-yl)-6-{[(3R,5R)-5-fluoro-1-methylpiperidin-3-yl]amino}-4-methyl-4H,5H-1,2,4-triazin-5-ketone] | 5.06 nM | 21400 ng·h/mL | 8570 ng/mL | 3.16 h |  |
| CN1CCC[C@@H](Nc2nnc(-c3ccc(C(F)(F)F)cc3O)n(C)c2=O)C1 [Ref-3, reference compound] |  | 1820 ng·h/mL | 1140 ng/mL | 0.87 h | 6.49 nM |
| [2H]C([2H])([2H])C([2H])([2H])N1CCC[C@@H](Nc2nnc(-c3ccc4sccc4c3O)n(C)c2=O)C1 [Compound 6, (R)-6-((1-(ethyl-d5)piperidin-3-yl)amino)-3-(4-hydroxybenzo[b]thiophen-5-yl)-4-methyl-1,2,4-triazin-5(4H)-ketone] | 3.01 nM | 8300 ng·h/mL | 1340 ng/mL | 3.18 h |  |
| CC(C)N1CCC[C@@H](Nc2nnc(-c3ccc4sccc4c3O)n(C)c2=O)C1 [Compound 36] | 1.55 nM | 3320 ng·h/mL | 1510 ng/mL | 1.24 h |  |
| CN1CCC[C@@H](Nc2nnc(-c3ccc4c(c3O)CCC4=C(F)F)n(C)c2=O)C1 [Compound 13, (R)-3-(1-(difluoromethylene)-4-hydroxy-2,3-dihydro-1H-inden-5-yl)-4-methyl-6-((1-methylpiperidin-3-yl)amino)-1,2,4-triazin-5 (4H)-ketone] | 1.36 nM | 98700 ng·h/mL | 11400 ng/mL | 5.47 h |  |
